Assay results from ChEMBL document CHEMBL1671854, “ramR mutations involved in efflux-mediated multidrug resistance in Salmonella enterica serovar Typhimurium” (2008).
Converted amounts (≈) assume the structure as drawn.

What was measured:
Type in all cases: functional, Salmonella enterica subsp. enterica serovar Typhimurium
Salmonella typhimurium [1] = assay: Antimicrobial activity against Salmonella enterica serovar Typhimurium BN18/71 harboring GyrA G81C, acrR mutant genes by agar doubling dilution method
Salmonella typhimurium [2] = assay: Antimicrobial activity against multidrug-resistant Salmonella enterica serovar Typhimurium 102SA00 harboring plasmid encoded RamR gene, GyrA S83A and D87N, GyrB S464F and ParC S80I mutant genes by agar doubling dilution method
Salmonella typhimurium [3] = assay: Antimicrobial activity against Salmonella enterica serovar Typhimurium BN18 by agar doubling dilution method
Salmonella typhimurium [4] = assay: Antimicrobial activity against multidrug-resistant Salmonella enterica serovar Typhimurium 543SA98 harboring plasmid encoded RamR gene, GyrA S83Y mutant gene by agar doubling dilution method
Salmonella typhimurium [5] = assay: Antimicrobial activity against multidrug-resistant Salmonella enterica serovar Typhimurium BN9181 harboring plasmid encoded RamR gene by agar doubling dilution method
Salmonella typhimurium [6] = assay: Antimicrobial activity against ramA::kan-deficient Salmonella enterica serovar Typhimurium S/921495 by agar doubling dilution method
Salmonella typhimurium [7] = assay: Antimicrobial activity against Salmonella enterica serovar Typhimurium S/921495 by agar doubling dilution method
Salmonella typhimurium [8] = assay: Antimicrobial activity against ramA::kan-deficient Salmonella enterica serovar Typhimurium BN9181 by agar doubling dilution method
Salmonella typhimurium [9] = assay: Antimicrobial activity against Salmonella enterica serovar Typhimurium BN18/41 harboring plasmid encoded RamR gene, GyrA G81C,acrR mutant genes by agar doubling dilution method
Salmonella typhimurium [10] = assay: Antimicrobial activity against multidrug-resistant Salmonella enterica serovar Typhimurium BN9945 harboring plasmid encoded RamR gene by agar doubling dilution method
Salmonella typhimurium [11] = assay: Antimicrobial activity against multidrug-resistant Salmonella enterica serovar Typhimurium 902SA92 harboring plasmid encoded RamR gene, GyrA S83A and D87N, GyrB S464F and ParC S80I mutant genes by agar doubling dilution method
Salmonella typhimurium [12] = assay: Antimicrobial activity against Salmonella enterica serovar Typhimurium S/921495 harboring plasmid encoded RamR gene by agar doubling dilution method
Salmonella typhimurium [13] = assay: Antimicrobial activity against multidrug-resistant Salmonella enterica serovar Typhimurium 102SA00 harboring GyrA S83A and D87N, GyrB S464F and ParC S80I mutant genes by agar doubling dilution method
Salmonella typhimurium [14] = assay: Antimicrobial activity against Salmonella enterica serovar Typhimurium BN18/71 harboring plasmid encoded RamR gene, GyrA G81C,acrR mutant genes by agar doubling dilution method
Salmonella typhimurium [15] = assay: Antimicrobial activity against ramR-deficient Salmonella enterica serovar Typhimurium S/921495 harboring plasmid encoded RamR gene by agar doubling dilution method
Salmonella typhimurium [16] = assay: Antimicrobial activity against marR::kan-deficient Salmonella enterica serovar Typhimurium S/921495 by agar doubling dilution method
Salmonella typhimurium [17] = assay: Antimicrobial activity against multidrug-resistant Salmonella enterica serovar Typhimurium BN10055 harboring GyrA S83Y mutant gene by agar doubling dilution method
Salmonella typhimurium [18] = assay: Antimicrobial activity against multidrug-resistant Salmonella enterica serovar Typhimurium BN9181 by agar doubling dilution method
Salmonella typhimurium [19] = assay: Antimicrobial activity against marR-deficient Salmonella enterica serovar Typhimurium S/921495 by agar doubling dilution method
Salmonella typhimurium [20] = assay: Antimicrobial activity against Salmonella enterica serovar Typhimurium BN18/21 harboring plasmid encoded RamR gene by agar doubling dilution method
Salmonella typhimurium [21] = assay: Antimicrobial activity against Salmonella enterica serovar Typhimurium BN18/41 harboring GyrA G81C,acrR mutant genes by agar doubling dilution method
Salmonella typhimurium [22] = assay: Antimicrobial activity against ramR::kan-deficient Salmonella enterica serovar Typhimurium S/921495 by agar doubling dilution method
Salmonella typhimurium [23] = assay: Antimicrobial activity against Salmonella enterica serovar Typhimurium BN18 harboring plasmid encoded RamR gene by agar doubling dilution method
Salmonella typhimurium [24] = assay: Antimicrobial activity against ramR-deficient Salmonella enterica serovar Typhimurium S/921495 by agar doubling dilution method
Salmonella typhimurium [25] = assay: Antimicrobial activity against multidrug-resistant Salmonella enterica serovar Typhimurium 543SA98 harboring GyrA […] mutant gene by agar doubling dilution method
Salmonella typhimurium [26] = assay: Antimicrobial activity against multidrug-resistant Salmonella enterica serovar Typhimurium BN9945 by agar doubling dilution method
Salmonella typhimurium [27] = assay: Antimicrobial activity against ramA::kan-deficient Salmonella enterica serovar Typhimurium 102SA00 harboring GyrA S83A and D87N, GyrB S464F and ParC S80I mutant genes by agar doubling dilution method
Salmonella typhimurium [28] = assay: Antimicrobial activity against Salmonella enterica serovar Typhimurium BN18/21 by agar doubling dilution method
Salmonella typhimurium [29] = assay: Antimicrobial activity against ramA::kan-deficient Salmonella enterica serovar Typhimurium BN18/71 harboring plasmid encoded RamR gene, GyrA G81C,acrR mutant genes by agar doubling dilution method
Salmonella typhimurium [30] = assay: Antimicrobial activity against ramA::kan-deficient Salmonella enterica serovar Typhimurium BN9945 by agar doubling dilution method
Salmonella typhimurium [31] = assay: Antimicrobial activity against ramA::kan-deficient Salmonella enterica serovar Typhimurium 902SA92 harboring GyrA S83A and D87N, GyrB S464F and ParC S80I mutant genes by agar doubling dilution method
Salmonella typhimurium [32] = assay: Antimicrobial activity against multidrug-resistant Salmonella enterica serovar Typhimurium BN10055 harboring plasmid encoded RamR gene, GyrA S83Y mutant gene by agar doubling dilution method
Salmonella typhimurium [33] = assay: Antimicrobial activity against ramA::kan-deficient Salmonella enterica serovar Typhimurium 543SA98 harboring GyrA S83Y mutant gene by agar doubling dilution method
Salmonella typhimurium [34] = assay: Antimicrobial activity against ramA::kan-deficient Salmonella enterica serovar Typhimurium BN18/21 by agar doubling dilution method
Salmonella typhimurium [35] = assay: Antimicrobial activity against ramA::kan-deficient Salmonella enterica serovar Typhimurium BN10055 harboring GyrA S83Y mutant gene by agar doubling dilution method
Salmonella typhimurium [36] = assay: Antimicrobial activity against ramA::kan-deficient Salmonella enterica serovar Typhimurium BN18/41 harboring plasmid encoded RamR gene, GyrA G81C,acrR mutant genes by agar doubling dilution method
Salmonella typhimurium [37] = assay: Antimicrobial activity against multidrug-resistant Salmonella enterica serovar Typhimurium 902SA92 harboring GyrA S83A and D87N, GyrB S464F and ParC S80I mutant genes by agar doubling dilution method
Salmonella typhimurium [38] = assay: Antimicrobial activity against marA::kan-deficient Salmonella enterica serovar Typhimurium S/921495 by agar doubling dilution method
Salmonella typhimurium [39] = assay: Antimicrobial activity against ramA::kan-deficient Salmonella enterica serovar Typhimurium BN18 by agar doubling dilution method
Salmonella typhimurium [40] = assay: Antimicrobial activity against soxR::kan-deficient Salmonella enterica serovar Typhimurium S/921495 by agar doubling dilution method
Salmonella typhimurium [41] = assay: Antimicrobial activity against soxS::kan-deficient Salmonella enterica serovar Typhimurium S/921495 by agar doubling dilution method

Molecule CC1CCc2cc(F)cc3c(=O)c(C(=O)O)cn1c23 (stereo unspecified) [FLUMEQUINE] has an MIC (Salmonella typhimurium [1]) of 512 µg/mL (≈ 1960 µM), an MIC (Salmonella typhimurium [2]) of 512 µg/mL (≈ 1960 µM) and an MIC (Salmonella typhimurium [3]) of 0.5 µg/mL (≈ 1.91 µM). For the same molecule, the MIC (Salmonella typhimurium [4]) was 8 µg/mL (≈ 30.6 µM), the MIC (Salmonella typhimurium [5]) was 0.5 µg/mL (≈ 1.91 µM) and the MIC (Salmonella typhimurium [6]) was 0.5 µg/mL (≈ 1.91 µM). For the same molecule, the MIC (Salmonella typhimurium [7]) was 0.5 µg/mL (≈ 1.91 µM), the MIC (Salmonella typhimurium [8]) was 0.5 µg/mL (≈ 1.91 µM) and the MIC (Salmonella typhimurium [9]) was 64 µg/mL (≈ 245 µM). For the same molecule, the MIC (Salmonella typhimurium [10]) was 8 µg/mL (≈ 30.6 µM), the MIC (Salmonella typhimurium [11]) was 512 µg/mL (≈ 1960 µM) and the MIC (Salmonella typhimurium [12]) was 0.5 µg/mL (≈ 1.91 µM). For the same molecule, the MIC (Salmonella typhimurium [13]) was 2050 µg/mL (≈ 7840 µM), the MIC (Salmonella typhimurium [14]) was 256 µg/mL (≈ 980 µM) and the MIC (Salmonella typhimurium [15]) was 0.5 µg/mL (≈ 1.91 µM). It also gave an MIC (Salmonella typhimurium [16]) of 0.5 µg/mL (≈ 1.91 µM), an MIC (Salmonella typhimurium [17]) of 64 µg/mL (≈ 245 µM) and an MIC (Salmonella typhimurium [18]) of 0.5 µg/mL (≈ 1.91 µM). For the same molecule, the MIC (Salmonella typhimurium [19]) was 0.5 µg/mL (≈ 1.91 µM), the MIC (Salmonella typhimurium [20]) was 2 µg/mL (≈ 7.66 µM) and the MIC (Salmonella typhimurium [21]) was 256 µg/mL (≈ 980 µM). For the same molecule, the MIC (Salmonella typhimurium [22]) was 2 µg/mL (≈ 7.66 µM), the MIC (Salmonella typhimurium [23]) was 0.5 µg/mL (≈ 1.91 µM) and the MIC (Salmonella typhimurium [24]) was 2 µg/mL (≈ 7.66 µM). The MIC (Salmonella typhimurium [25]) was 32 µg/mL (≈ 122 µM), the MIC (Salmonella typhimurium [26]) was 32 µg/mL (≈ 122 µM) and the MIC (Salmonella typhimurium [27]) was 512 µg/mL (≈ 1960 µM). For the same molecule, the MIC (Salmonella typhimurium [28]) was 8 µg/mL (≈ 30.6 µM), the MIC (Salmonella typhimurium [29]) was 256 µg/mL (≈ 980 µM) and the MIC (Salmonella typhimurium [30]) was 8 µg/mL (≈ 30.6 µM). The MIC (Salmonella typhimurium [31]) was 512 µg/mL (≈ 1960 µM), the MIC (Salmonella typhimurium [32]) was 64 µg/mL (≈ 245 µM) and the MIC (Salmonella typhimurium [33]) was 8 µg/mL (≈ 30.6 µM). For the same molecule, the MIC (Salmonella typhimurium [34]) was 2 µg/mL (≈ 7.66 µM), the MIC (Salmonella typhimurium [35]) was 16 µg/mL (≈ 61.2 µM) and the MIC (Salmonella typhimurium [36]) was 64 µg/mL (≈ 245 µM). For the same molecule, the MIC (Salmonella typhimurium [37]) was 2050 µg/mL (≈ 7840 µM), the MIC (Salmonella typhimurium [38]) was 0.5 µg/mL (≈ 1.91 µM) and the MIC (Salmonella typhimurium [39]) was 0.5 µg/mL (≈ 1.91 µM). For the same molecule, the MIC (Salmonella typhimurium [40]) was 0.5 µg/mL (≈ 1.91 µM) and the MIC (Salmonella typhimurium [41]) was 0.5 µg/mL (≈ 1.91 µM).
